Test results published in patent US8937066B2, “Amino derivatives of dihydro-1,3,5-triazine used in the treatment of ischemia and/or reperfusion related diseases” (Poxel, priority 2009, dated 2015).

Legend:
[1] = test system: human immortalized microvascular dermal endothelial cells HMEC-1; experiment: Mitochondrial membrane potential (TMRM, confocal microscopy) after ischemia/reperfusion; assay type: cell-based; details: 10 mM for 30 min; for mitochondrial membrane potential after reperfusion: then 60 min ischemia and 90/120 min reperfusion
Description: The objective of this study is to evaluate the protective effect of the compound E 008 on vascular injury due to ischemia/reperfusion, by measuring the effect of E 008 on loss of mitochondrial membrane potential induced by ischemia/reperfusion.
The line of human immortalized microvascular dermal endothelial cells HMEC-1 was used.
The cells were treated according to the following scheme: • control group: no treatment, followed by ischemia of 60 min and reperfusion of 120 min. • metformin group: incubation with metformin at a concentration of 10 mM for 30 min, followed by ischemia of 60 min and reperfusion of 120 min. • E 008 group: incubation with the compound E 008 at a concentration of 10 mM for 30 min followed by ischemia of 60 min and reperfusion of 120 min. Measurement of Mitochondrial Membrane Potential
In order to measure the mitochondrial potential, the cells were incubated, throughout the above treatment, with the fluorescent probe tetramethylrhodamine methyl ester (TMRM) at a concentration of 30 nM.
They were analyzed in confocal microscopy before treatment, after 60 min of ischemia, after 90 min of reperfusion and after 120 min of reperfusion (FIG. 1).

[2] = test system: infarct size / area at risk; experiment: Model of myocardial infarction in the rabbit (30 min coronary occlusion, 4 h reperfusion); assay type: in vivo; details: for AN (area of necrosis) / AN/AR / AN/LV: group mean (extent of values)
Description: Male New Zealand albino rabbits weighing between 2.2 and 2.5 kg were anesthetized by intramuscular injection of xylazine (5 mg/kg) and ketamine (50 mg/kg). An intravenous infusion of a mixture of xylazine (20 to 50 μg/kg/min) and ketamine (40 to 100 μg/kg/min) was maintained throughout the test.
After a median cervical incision, a tracheotomy was performed and the animals were ventilated with ambient air. A cannula was inserted in the right internal jugular vein for administration of the medicinal products and fluids and in the left carotid artery for measurement of blood pressure. After an intravenous bolus administration of fentanyl ([…]), a left thoracotomy was performed at the level of the fourth left intercostal space. The pericardium was opened and the heart was exposed. A 3.0 suture thread attached to a small curved needle was passed around a marginal branch of the left circumflex coronary artery. The two ends of the thread were passed through a small vinyl tube to form a collar that could be tightened for occluding and released for reperfusing the artery. Body temperature was monitored via an intraperitoneal thermometer and kept constant by means of a heating block. The heart rate and arterial pressure were monitored continuously on a Gould recorder (Gould Inc., Cleveland, Ohio).
After surgery, a period of stabilization of 15 minutes was observed.
The rabbits are randomly distributed into 4 groups. All the animals undergo a prolonged occlusion of 30 minutes of the coronary artery, followed by 4 hours of reperfusion. Five minutes before reperfusion, the rabbits receive an intravenous injection of either: • a vehicle (volume corresponding to dose 1 or 2 of E 008) (Control, C), • E 008 at dose 1, • E 008 at dose 2, • of ciclosporin A (CsA) at 10 mg/kg.
The sample size is 8 to 10 animals per group. In these groups, the hearts were collected at the end of the period of 4 hours of reperfusion for subsequent evaluation of infarct size.
After 4 hours of reperfusion, the coronary artery was briefly reoccluded and 0.5 mg/kg of Uniperse blue pigment (Ciba-Geigy®, Hawthorne N.Y.) was injected intravenously for delimiting the area at risk in viva With this technique, the previously nonischemic myocardium appears blue, whereas the previously ischemic myocardium (area at risk) remains unstained.
The anesthetized rabbits were then euthanized by intravenous injection of pentobarbital. The heart was excised and cut into transverse slices with thickness of 5 to 6 mm, parallel to the atrioventricular sulcus. After removing the tissue of the right ventricle, each slice was weighed. The basal surface of each slice was photographed for later measurement of the area at risk. Each slice was then incubated for 15 minutes in a 1% solution of triphenyltetrazolium chloride at 37° C. for differentiating the myocardial zones that were infarcted (pale) and viable (brick red). The slices were then photographed again. Magnified projections of these slices were traced for determining the boundaries of the area at risk (AR) and of the area of necrosis (AN). The extent of these areas at risk and of necrosis was quantified by planimetry by computer and corrected relative to the weight of the tissue slices. The total weights of the area at risk and of the area of necrosis were then calculated and expressed in grams and as a percentage of total left ventricle (LV) and of the weight of the area at risk, respectively. […] Evaluation of infarct size was performed blind.
The results are presented in the following table in the form of value averaged for all the animals of a group, the figure in parentheses representing the extent of the values measured for the different animals.

[3] = test system: complex I of the respiratory chain of endothelial cells; experiment: ROS production by complex I of the respiratory chain; assay type: cell-based; details: by inhibiting reverse electron flow
[4] = E 008 1 mg/kg i.v. 5 min before reperfusion
[5] = E 008 5 mg/kg i.v. 5 min before reperfusion

| SMILES | mitochondrial membrane potential after reperfusion [1] | protective effect against loss of membrane potential compared with metformin ([1]; then 60 min ischemia and 120 min reperfusion) | AN (area of necrosis) [2, 4] | AN/AR [2, 4] | AN/LV [2, 4] | protection in the model of myocardial infarction ([2]; E 008 5 mg/kg i.v.) | AN (area of necrosis) [2, 5] | AN/AR [2, 5] | AN/LV [2, 5] | infarct size relative to ciclosporin A ([2]; E 008 5 mg/kg i.v. vs CsA 10 mg/kg) | infarct size relative to the control ([2]; i.v. 5 min before reperfusion, dose not given) | production of ROS by complex I of the respiratory chain [3] |
| --- | --- | --- | --- | --- | --- | --- | --- | --- | --- | --- | --- | --- |
| CN(C)C(=N)N=C(N)N [metformin, reference compound] | protected from the damage due to reperfusion |  |  |  |  |  |  |  |  |  |  |  |
| CC1N=C(N)NC(N(C)C)=N1 (stereo not shown) [E 008] | protected from the damage due to reperfusion | better protective effect | 0.31 (±0.15) g | 33.9 (±12.2) % | 11.8 (±5) % | significant protection | 0.21 (±0.09) g | 29.4 (±10.3) % | 8.3 (±3.7) % | reduction in infarct size relative to ciclosporin A | significant reduction in infarct size | reduce the production of ROS |
